Test results reported in patent publication US8158628B2, “Sulfonylated 1,2,3,4-tetrahydropyrrolo[1,2-a]pyrazine compounds and their use as pharmaceuticals” (Gruenenthal GmbH, priority 2009, dated 2012).

Legend:
[1] = target: T1, human B1R (Homo sapiens, UniProt P46663); test: FLIPR Ca2+ functional assay, B1R antagonism, human B1R in CHO K1 cells; assay type: cell-based; conditions: test substance 10 μM; hB1R CHO K1 cells; agonist Lys-Des-Arg9 bradykinin at EC80; % of maximum achievable inhibition
T1 construct: expressed in transfected cells; host or cells: CHO K1 cells (Chinese hamster ovary), stably transfected
T1 sequence (P46663 1-353): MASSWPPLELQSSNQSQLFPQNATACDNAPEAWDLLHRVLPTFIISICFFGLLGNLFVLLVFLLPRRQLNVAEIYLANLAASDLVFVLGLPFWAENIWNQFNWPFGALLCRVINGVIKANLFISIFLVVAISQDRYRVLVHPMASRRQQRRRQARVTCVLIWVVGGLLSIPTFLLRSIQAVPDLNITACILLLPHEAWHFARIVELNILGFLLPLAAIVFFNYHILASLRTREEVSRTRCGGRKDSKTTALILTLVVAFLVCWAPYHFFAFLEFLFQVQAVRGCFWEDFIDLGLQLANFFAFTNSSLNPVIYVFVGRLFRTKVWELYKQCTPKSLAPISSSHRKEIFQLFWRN
Summary of the method: (§1)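 Stably transfected CHO K1 cells loaded with Fluo-4; Ca2+ fluorescence read on FLIPR (ex 488/em 540 nm). Compound preincubated 10-20 min, then agonist at EC80: Lys-Des-Arg9 bradykinin (human) or Des-Arg9 bradykinin (rat). % inhibition vs maximal inhibition; IC50 from concentration series, n=2-3, N>=2.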

[2] = target: T2, B1R of the rat (Rattus norvegicus, UniProt P97583); test: FLIPR Ca2+ functional assay, B1R antagonism, rat B1R in CHO K1 cells; assay type: cell-based; conditions: test substance 10 μM; rB1R CHO K1 cells; agonist Des-Arg9 bradykinin at EC80; % of maximum achievable inhibition
T2 construct: expressed in transfected cells; host or cells: CHO K1 cells (Chinese hamster ovary), stably transfected
T2 sequence (P97583 1-337): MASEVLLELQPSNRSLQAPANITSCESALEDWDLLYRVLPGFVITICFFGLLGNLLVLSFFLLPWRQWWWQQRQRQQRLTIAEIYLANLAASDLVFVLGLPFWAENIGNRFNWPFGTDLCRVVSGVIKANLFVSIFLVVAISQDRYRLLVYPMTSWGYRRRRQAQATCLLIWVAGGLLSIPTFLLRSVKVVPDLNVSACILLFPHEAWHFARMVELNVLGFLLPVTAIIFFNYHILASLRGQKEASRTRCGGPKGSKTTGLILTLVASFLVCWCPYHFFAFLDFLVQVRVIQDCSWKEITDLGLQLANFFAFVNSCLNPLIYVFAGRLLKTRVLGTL
Summary of the method: as §1

| Compound | inhibition at 10 µM [1] [%] | inhibition at 10 µM [2] [%] |
| --- | --- | --- |
| Cc1ccc(S(=O)(=O)N2CCn3cccc3C2CC(=O)NC2CCc3cc(CNCc4ccccc4)ccc3C2)cc1 (stereo not drawn) [Example 93, N-[6-[(Benzylamino)-methyl]-1,2,3,4-tetrahydro-naphthalen-2-yl]-2-[2-(p-tolylsulfonyl)-1,2,3,4-tetrahydro-pyrrolo[1,2-a]pyrazin-1-yl]-acetamide] | 99.9 | 96.8 |
| O=C(CC1c2cccn2CCN1S(=O)(=O)c1cccc(C(F)(F)F)c1)NC1CCc2cc(CN3CCCc4ccccc43)ccc2C1 (stereo not drawn) [Example 69, N-[6-(1,2,3,4-Tetrahydro-quinolin-1-yl-methyl)-1,2,3,4-tetrahydro-naphthalen-2-yl]-2-[2-[[3-(trifluoromethyl)phenyl]sulfonyl]-1,2,3,4-tetrahydro-pyrrolo[1,2-a]pyrazin-1-yl]-acetamide] | 62.8 | 90.7 |
| COc1ccc2cc(S(=O)(=O)N3CCn4cccc4C3CC(=O)NC3CCCc4cc(CNCc5ccccc5)ccc43)ccc2c1 (stereo not drawn) [Example 100, N-[6-[(Benzylamino)-methyl]-1,2,3,4-tetrahydro-naphthalen-1-yl]-2-[2-[(6-methoxy-naphthalen-2-yl)sulfonyl]-1,2,3,4-tetrahydro-pyrrolo[1,2-a]pyrazin-1-yl]-acetamide] | 99.8 | 103 |
| CCC(C)NCc1ccc2c(c1)CCCC2NC(=O)CC1c2cccn2CCN1S(=O)(=O)c1ccc2cc(OC)ccc2c1 (stereo not drawn) [Example 125, 2-[2-[(6-Methoxy-naphthalen-2-yl)sulfonyl]-1,2,3,4-tetrahydro-pyrrolo[1,2-a]pyrazin-1-yl]-N-[6-[(1-methyl-propylamino)-methyl]-1,2,3,4-tetrahydro-naphthalen-1-yl]-acetamide] | 99.6 | 99.1 |
| COc1ccc2cc(S(=O)(=O)N3CCn4cccc4C3CC(=O)NC3Cc4ccc(CN5CCCCC5)cc4C3)ccc2c1 (stereo not drawn) [Example 48, 2-(2-(6-methoxynaphthalen-2-ylsulfonyl)-1,2,3,4-tetrahydropyrrolo-[1,2-a]pyrazin-1-yl)-N-(5-(piperidin-1-ylmethyl)-2,3-dihydro-1H-inden-2-yl)-acetamide] | 99.6 | 105 |
| Cc1ccc(S(=O)(=O)N2CCn3cccc3C2CC(=O)NC2CCCc3cc(CNCc4ccccc4)ccc32)cc1Cl (stereo not drawn) [Example 111, N-[6-[(Benzylamino)-methyl]-1,2,3,4-tetrahydro-naphthalen-1-yl]-2-[2-[(3-chloro-4-methyl-phenyl)sulfonyl]-1,2,3,4-tetrahydro-pyrrolo[1,2-a]pyrazin-1-yl]-acetamide] | 100 | 103 |
| CN(C)Cc1ccc2c(c1)CCCC2NC(=O)CC1c2cccn2CCN1S(=O)(=O)c1cccc(C(F)(F)F)c1 (stereo not drawn) [Example 124, N-[6-(Dimethylaminomethyl)-1,2,3,4-tetrahydro-naphthalen-1-yl]-2-[2-[[3-(trifluoromethyl)phenyl]sulfonyl]-1,2,3,4-tetrahydro-pyrrolo[1,2-a]pyrazin-1-yl]-acetamide] | 99.7 | 97.3 |
| CC(C)(C)NCc1ccc2c(c1)CCC(NC(=O)CC1c3cccn3CCN1S(=O)(=O)c1cccc(C(F)(F)F)c1)C2 (stereo not drawn) [Example 64, N-[6-[(tert-Butylamino)-methyl]-1,2,3,4-tetrahydro-naphthalen-2-yl]-2-[2-[[3-(trifluoromethyl)phenyl]sulfonyl]-1,2,3,4-tetrahydro-pyrrolo[1,2-a]pyrazin-1-yl]-acetamide] | 99.9 | 102 |
| O=C(CC1c2cccn2CCN1S(=O)(=O)c1cccc(C(F)(F)F)c1)NC1CCCc2cc(CN3C4CCCC3CC4)ccc21 (stereo not drawn) [Example 109, N-[6-(8-Azabicyclo[3.2.1]octan-8-yl-methyl)-1,2,3,4-tetrahydro-naphthalen-1-yl]-2-[2-[[3-(trifluoromethyl)phenyl]sulfonyl]-1,2,3,4-tetrahydro-pyrrolo[1,2-a]pyrazin-1-yl]-acetamide] | 99.8 | 99.8 |
